In patent publication US8361969B2, “Designer cyclic peptides—HIV gp120 antagonists and their applications” (priority 2011, dated 2013):
“And” between values parts separate entries of the source, which are not always exact repeats. Equal entries are not always repeated. Non-standard residues stand in square brackets, D forms with d. Residues, ends and D or L forms follow the SMILES beside them. dBip = N[C@H](Cc1ccc(-c2ccccc2)cc1)C(=O)O

How the values were obtained:
[1] = system: HIV-1; details: read-out: IC50, inhibition of HIV-1 entry (attachment assay); compounds pre-equilibrated with the cells rather than with the virus; value represents lower boundary of actual activity
Text: An attachment assay, described by Lackman-Smith et al., 2008, was used.

[2] = system: cells; details: highest tested concentration 100 μM

**Q.** How did the IC50 [1] turn out when CC[C@H](C)[C@@H]1NC(=O)[C@H](CC(=O)O)NC(=O)[C@H](Cc2ccccc2)NC(=O)[C@H](CC(=O)O)NC(=O)[C@@H](CC(=O)O)NC(=O)[C@@H](Cc2ccc(-c3ccccc3)cc2)NC(=O)[C@H]2CCCN2C(=O)CNC(=O)[C@@H](CCC(=O)O)NC(=O)[C@@H](Cc2ccc(O)cc2)NC(=O)[C@H](CCCCN)NC(=O)[C@@H](CC(C)C)NC(=O)[C@@H](CC(=O)O)NC(=O)[C@H]([C@@H](C)CC)NC1=O [2-s4-98rp-39m-60-1_MC] (cyclo(DFDII[dD][dL]K[dY][dE]G[dP][dBip][dD])) was run?
**A.** ≤ 1640 nM and 1640 nM

**Q.** And the “cytotoxicity (none observed up to the highest tested concentration)” value [2]?
**A.** > 100 µM
